Results: patent publication US9370522B2, “Heterocyclic compounds for the inhibition of PASK” (BioEnergenix, LLC, priority 2009, dated 2016)

Columns and labels:
hPASK (Full Length) = molecular target: T1, hPASK (Full Length) (Homo sapiens, UniProt Q96RG2); assay: Biochemical Assay for hPASK Activity (Kinase-Glo Luminescent Kinase Assay), full length; details: purified hPASK from insect cells, MBP substrate
T1 construct: made in house; host or cells: insect cells
Description: (§1) The assay for purified hPASK activity utilizes the Kinase-Glo Luminescent Kinase Assay (Promega), which quantifies the amount of ATP remaining in solution following kinase reaction. The assay is carried out in a 96-well plate format and is performed by adding a volume of Kinase-Glo Reagent (Promega, catalog #V3771) equal to the volume of solution in the well of a completed kinase reaction. Kinase-Glo reagent contains Luciferase and its substrate. After addition to a kinase reaction it allows to measure luminescence. The amount of ATP left in solution at the time of Kinase-Glo Plus addition is directly proportional to the luminescence that is measured in each well, and inversely correlated with kinase activity.
(§2) Purified hPASK from insect cells (0.02 μg) is added to a 50 μL reaction mix containing 40 mM Hepes (pH 7.0), 100 mM KCl, 5 mM MgCl2, 1 mM DTT and 1 ug of MBP protein. Inhibitory compounds are then added and the mixture is incubated for 10 min at 25° C. before adding 5 μL of ATP (at desired concentration). The reaction is allowed to proceed at 25° C. for 1 hour before adding 50 μL of Kinase-Glo reagent. The luminescence is measured as soon as 10 minutes after Kinase-Glo reagent is added.

hPASK Kinase Domain = molecular target: T2, hPASK Kinase Domain (Homo sapiens, UniProt Q96RG2); assay: Biochemical Assay for hPASK Activity (Kinase-Glo Luminescent Kinase Assay), kinase domain
T2 construct: made in house; host or cells: insect cells
Description: as §1, §2

[1] = molecular target: T3, PASK (Invitrogen) Kinase Domain (Homo sapiens, UniProt Q96RG2); assay: PASK TR-FRET assay (Ulight-peptide, Eu chelate antibody); type: biochemical; details: TR-FRET 665 nm/615 nm, 2 hours at 25° C.
T3 construct: IC50 Kinase Domain; purchased Invitrogen
Excerpt: The aim of the FRET assay is to determine the inhibition potential of test compounds on targeted kinase. This assay platform provides a homogenous screening method for measuring kinase activity by quantitating the amount of phospho-substrate in solution following a kinase reaction.
In the presence of kinase and ATP, the Ulight-peptide is phosphorylated and captured by an anti-phospho-substrate antibody, which brings the Eu chelate donor and Ulight acceptor dyes into close proximity. Upon excitation at 340 nm, the Eu chelate transfers its energy to the Ulight dye, resulting in a fluorescent light emission at 665 nm.
Titration of Kinase at 1 mM ATP was achieved via the following protocol. After making serial three-fold dilutions of PASK (Invitrogen) in reaction buffer across the plate; 5 μl of kinase dilution and 5 μl substrate/ATP mix were added to the wells of the white Optiplate-384 (PerkinElmer). The contents of the plate were and incubated at RT for 1 h. The reaction was stopped by adding 5 μl of stop solution to each test well followed by mixing and incubation at RT for 10 minutes. 5 μl of detection mix (detection antibody diluted in detection buffer) was added; the contents of the plate were mixed and then incubated in the dark for 1 hour at RT. The signal was recorded at TR-FRET mode (665 nm/615 nm). The results were graphed to calculate the EC50.
Titration of ATP at the EC50 Concentration of Kinase to determine ATP Km,app. was performed using the following method. After making serial dilutions of ATP (Invitrogen), 5 μl of ATP dilution and 5 μl substrate/kinase mix were added to the wells of the white Optiplate-384 (PerkinElmer). The contents of the plate were and incubated at RT for 1 h. The reaction was stopped by adding 5 μl of stop solution to each test well followed by mixing and incubation at RT for 10 minutes. 5 μl of detection mix (detection antibody diluted in detection buffer) was added; the contents of the plate were mixed and then incubated in the dark for 1 hour at RT. The signal was recorded at TR-FRET mode (665 nm/615 nm). The results were graphed to calculate the EC50 as the ATP Km,app.
Compound screening was done via the following method. 10 mM stock solution of test compound in DMSO was prepared by dissolving test compound in DMSO at RT for 1 hour, and then sonicating at 100% output for 8 minutes. If compound is not soluble under this condition, it was diluted to 3 mM. Kinase reaction buffer was prepared containing 10 mM MgCl2, 50 mM HEPES, 1 mM EGTA, 0.01% TWEEN-20, 2 mM DTT. […] The signal was recorded at TR-FRET mode (665 nm/615 nm).

PASK = molecular target: T4, PASK (UniProt #Q96RG2; human recombinant N-terminal GST tagged construct, residues 879-1323) (Homo sapiens, UniProt Q96RG2); assay: 33P-ATP radiometric PASK kinase assay (P81 phosphocellulose, scintillation counting); type: biochemical; details: Table 2, Myelin Basic Protein 20 μM, 120 min room temperature, average of all trials, read-out: IC50 Kinase Domain
T4 construct: N-terminal GST tagged construct, residues 879-1323; GST (N); made in house; host or cells: insect cells
Description: Purified PASK (UniProt #Q96RG2; human recombinant N-terminal GST tagged construct, residues 879-1323) from insect cells (final concentration 5 nM) is added to freshly prepared Base Reaction Buffer containing 20 mM Hepes (pH 7.5), 10 mM MgCl2, 1 mM EGTA, 0.02% Brij35, 0.02 mg/ml BSA, 0.1 mM Na3VO4, 2 mM DTT, 1% DMSO and Myelin Basic Protein (20 μM final). Test compounds in DMSO are then added and the mixture, followed by delivery of ^33P-ATP (specific activity 0.01 μCi/μl final) to initiate the reaction. The kinase reaction is incubated for 120 min at room temperature. The entire reaction mixture is washed through onto a P81 Phosphocellulose paper and washed three times for 10 minutes in 75 mM phosphoric acid and once in methanol prior to drying and scintillation counting. When the assay was repeated for a given compound, the activity data is based on the average of all trials.

[2] = Table 1, second part (Examples 33-59)

T1 sequence (Q96RG2 whole entry): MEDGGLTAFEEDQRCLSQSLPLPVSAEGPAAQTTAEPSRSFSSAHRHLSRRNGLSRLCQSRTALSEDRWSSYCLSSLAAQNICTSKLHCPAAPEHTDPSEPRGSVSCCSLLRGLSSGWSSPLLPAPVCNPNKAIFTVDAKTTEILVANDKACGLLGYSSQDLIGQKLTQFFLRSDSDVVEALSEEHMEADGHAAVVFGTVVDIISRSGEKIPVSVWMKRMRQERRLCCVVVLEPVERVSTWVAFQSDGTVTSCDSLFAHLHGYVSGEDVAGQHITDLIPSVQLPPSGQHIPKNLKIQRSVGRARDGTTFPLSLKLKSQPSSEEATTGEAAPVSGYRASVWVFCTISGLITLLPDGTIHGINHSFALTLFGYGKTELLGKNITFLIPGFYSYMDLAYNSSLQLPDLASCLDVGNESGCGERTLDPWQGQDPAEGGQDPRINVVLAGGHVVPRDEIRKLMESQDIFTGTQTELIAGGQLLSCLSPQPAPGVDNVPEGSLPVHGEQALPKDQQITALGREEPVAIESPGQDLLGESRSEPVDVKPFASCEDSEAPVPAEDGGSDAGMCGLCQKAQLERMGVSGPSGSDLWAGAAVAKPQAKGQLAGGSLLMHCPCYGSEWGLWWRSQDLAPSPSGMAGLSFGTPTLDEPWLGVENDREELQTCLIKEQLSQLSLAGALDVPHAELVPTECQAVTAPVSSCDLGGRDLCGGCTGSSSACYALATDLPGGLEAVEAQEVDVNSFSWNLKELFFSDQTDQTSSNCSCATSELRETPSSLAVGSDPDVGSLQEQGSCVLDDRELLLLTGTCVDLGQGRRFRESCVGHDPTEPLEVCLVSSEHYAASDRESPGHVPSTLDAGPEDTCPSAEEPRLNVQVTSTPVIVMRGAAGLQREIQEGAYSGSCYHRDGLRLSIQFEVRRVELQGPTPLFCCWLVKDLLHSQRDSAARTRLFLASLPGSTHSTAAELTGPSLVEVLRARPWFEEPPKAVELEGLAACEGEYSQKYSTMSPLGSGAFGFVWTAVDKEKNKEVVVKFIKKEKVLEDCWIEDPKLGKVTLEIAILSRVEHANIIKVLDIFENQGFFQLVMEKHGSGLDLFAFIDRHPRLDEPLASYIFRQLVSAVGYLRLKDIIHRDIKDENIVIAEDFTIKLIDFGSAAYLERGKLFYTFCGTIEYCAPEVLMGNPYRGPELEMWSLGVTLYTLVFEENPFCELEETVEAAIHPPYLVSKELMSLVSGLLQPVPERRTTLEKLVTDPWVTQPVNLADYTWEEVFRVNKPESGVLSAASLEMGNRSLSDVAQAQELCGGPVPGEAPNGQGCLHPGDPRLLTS
T3 sequence (Q96RG2 999-1251 limits assumed): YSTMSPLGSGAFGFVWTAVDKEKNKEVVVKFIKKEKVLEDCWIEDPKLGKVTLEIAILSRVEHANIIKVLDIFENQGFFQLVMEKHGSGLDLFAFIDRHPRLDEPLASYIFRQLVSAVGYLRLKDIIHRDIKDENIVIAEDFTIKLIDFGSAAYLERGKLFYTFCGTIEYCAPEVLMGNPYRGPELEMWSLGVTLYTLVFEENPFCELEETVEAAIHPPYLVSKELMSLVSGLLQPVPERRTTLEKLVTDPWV
T2 sequence (Q96RG2 999-1251 limits assumed): as above
T4 sequence (Q96RG2 879-1323, stated change not applied): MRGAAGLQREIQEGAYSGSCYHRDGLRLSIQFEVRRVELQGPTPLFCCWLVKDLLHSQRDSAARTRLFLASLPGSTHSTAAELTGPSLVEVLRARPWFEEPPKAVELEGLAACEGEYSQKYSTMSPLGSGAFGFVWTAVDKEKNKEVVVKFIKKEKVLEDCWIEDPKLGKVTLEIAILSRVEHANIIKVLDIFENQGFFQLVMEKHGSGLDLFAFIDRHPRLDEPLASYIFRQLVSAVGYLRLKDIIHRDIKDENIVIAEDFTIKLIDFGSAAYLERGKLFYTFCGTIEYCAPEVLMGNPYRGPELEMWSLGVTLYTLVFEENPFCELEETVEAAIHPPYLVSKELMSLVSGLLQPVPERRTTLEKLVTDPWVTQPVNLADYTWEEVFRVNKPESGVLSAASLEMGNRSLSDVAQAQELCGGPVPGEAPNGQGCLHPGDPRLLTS

IC50 (hPASK (Full Length)) | IC50 (hPASK Kinase Domain; Table 1, first part) | IC50 [1] | IC50 (hPASK Kinase Domain; [2]) | IC50 (PASK) | SMILES
≤ 10 µM | ≤ 10 µM |  |  |  | O=C(O)c1ccc2nc(-c3cccc(O)c3)c(-c3cccc(O)c3)nc2c1 [Example 1, 2,3-Di-(3-hydroxyphenyl)quinoxaline-6-carboxylic acid]
≥ 10 µM | ≥ 10 µM |  |  |  | COc1ccc(-c2nc3ccc(C(=O)O)cc3nc2-c2ccc(OC)c(OC)c2)cc1OC [Example 4, 2,3-Di-(3,4-dimethoxyphenyl)quinoxaline-6-carboxylic acid]
≤ 10 µM | ≥ 10 µM |  |  |  | O=C(O)c1ccc2nc(-c3ccc(F)cc3)c(-c3ccc(F)cc3)nc2c1 [Example 5, 2,3-Di-(4-fluorophenyl)quinoxaline-6-carboxylic acid]
≤ 10 µM | ≥ 10 µM |  |  |  | Cc1ccc(-c2nc3ccc(C(=O)O)cc3nc2-c2ccc(C)cc2)cc1 [Example 7, 2,3-Di-(4-methylphenyl)quinoxaline-6-carboxylic acid]
≥ 10 µM | ≥ 10 µM |  |  |  | CCOc1ccc(-c2nc3ccc(C(=O)O)cc3nc2-c2ccc(OCC)cc2)cc1 [Example 11, 2,3-Di-(4-ethoxyphenyl)quinoxaline-6-carboxylic acid]
 |  | ≤ 10 µM | ≤ 10 µM | ≤ 10 µM | CC(C)(C)c1ccc(-c2nc3cc(C(=O)O)ccc3nc2-c2ccccc2)cc1 [Example 33, 3-(4-tert-Butylphenyl)-2-phenylquinoxaline-6-carboxylic acid]

Continued, molecule first:

SMILES | IC50 (hPASK (Full Length)) | IC50 (hPASK Kinase Domain; Table 1, first part) | IC50 [1] | IC50 (hPASK Kinase Domain; [2]) | IC50 (PASK)
O=C(O)c1ccc2nc(-c3ccccc3O)c(-c3ccccc3O)nc2c1 [Example 2, 2,3-Di-(2-hydroxyphenyl)quinoxaline-6-carboxylic acid] | ≤ 10 µM | ≤ 10 µM |  |  | 
Cc1nc2cc(C(=O)O)c(O)cc2nc1-c1ccccc1 [Example 3, 7-Hydroxy-2-phenyl-3-methylquinoxaline-6-carboxylic acid] | ≥ 10 µM | ≥ 10 µM |  |  | 
O=C(O)c1ccc2nc(-c3ccccc3)c(-c3ccccc3)nc2c1 [Example 8, 2,3-Diphenylquinoxaline-6-carboxylic acid] | ≤ 10 µM | ≤ 10 µM |  |  | 
O=C(O)c1ccc2nc(-c3ccco3)c(-c3ccco3)nc2c1 [Example 9, 2,3-Di-(2-furyl)quinoxaline-6-carboxylic acid] | ≤ 10 µM | ≤ 10 µM |  |  | 
O=C(O)c1cc2nc(-c3ccc4c(c3)OCO4)c(-c3ccc4c(c3)OCO4)nc2cc1O [Example 10, 2,3-Di-(3,4-methylenedioxyphenyl)quinoxaline-7-hydroxy-6-carboxylic acid] | ≤ 10 µM | ≤ 10 µM |  |  | 
CC(C)S(=O)(=O)Nc1ccc(-c2nc3cc(C(=O)O)ccc3nc2-c2ccccc2)cc1 [Example 52, 3-(4-(Isopropylsulfonamido)phenyl)-2-phenylquinoxaline-6-carboxylic acid] |  |  | ≤ 10 µM | ≤ 10 µM | 
COc1ccc(-c2nc3ccc(/C=C/C(=O)O)cc3nc2-c2ccc(OC)cc2)cc1 [Example 56, (E)-3-(2,3-bis(4-methoxyphenyl)quinoxalin-6-yl)acrylic acid] |  |  |  | ≥ 10 µM | 
COc1ccc(-c2nc3cccc(C(=O)O)c3nc2-c2ccc(OC)cc2)cc1 [Example 58, 2,3-Bis(4-methoxyphenyl)quinoxaline-5-carboxylic acid] |  |  |  | ≤ 10 µM | 
CCc1ccc(-c2nc3ccc(C(=O)NOC)cc3nc2-c2ccc(CC)cc2)cc1 [Example 59, 2,3-Bis(4-ethylphenyl)-N-methoxyquinoxaline-6-carboxamide] |  |  |  | ≤ 10 µM | 
COc1ccc(-c2nc3cc(C(=O)O)ccc3cc2-c2ccccc2)cc1 [Example 60, 2-(4-Methoxyphenyl)-3-phenylquinoline-7-carboxylic acid] |  |  | ≤ 10 µM |  | 
COc1ccc(-c2cc3cc(C(=O)O)ccc3nc2-c2ccc(OC)cc2)cc1 [Example 61, 2,3-Bis(4-methoxyphenyl)quinoline-6-carboxylic acid] |  |  | ≤ 10 µM |  | 
